Some test systems named below: HT-29; DMS-273; COLO 205; EKVX; ACHN; SK-OV-3; HCT-15; CCRF-CEM; HCT-116; TK-10; CAKI-1; OVCAR-4; UACC-62; SF-539; SW-620; RXF 393; MDA-N; DU-145; MCF7.
Assay in all cases: DTP human tumour cell line panel, 48 h

Molecules are shown by their SMILES.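 In this assay, cells in 96-well plates receive the compound at five concentrations for 48 hours. Endpoints are linearly interpolated between the surrounding concentrations. GI50 is the concentration that inhibits growth by half.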 The source made the active and inactive calls. Rule as the data show it: active = GI50 up to about 1.1 µM and inactive = higher.

`CCCCC(C(=O)CCC(=O)Nc1ccc(Cl)c(Cl)c1)C(=O)C(C)C` (stereo not given): the GI50 was > 100 µM (inactive) in the assay with HT-29; 52.4 µM (inactive) in the assay on DMS-273; > 100 µM (inactive) in the assay on COLO 205; > 100 µM (inactive) with EKVX; 31.2 µM (inactive) with ACHN; > 100 µM (inactive) with SK-OV-3. For the same compound, the GI50 in the assay with HCT-15 is above 100 µM; in the assay on CCRF-CEM, > 100 µM (inactive); with HCT-116, > 100 µM (inactive); in the assay with TK-10 it was 90.4 µM (inactive); in the assay on CAKI-1, > 100 µM (inactive); with OVCAR-4, > 100 µM (inactive). For the same compound, the GI50 in the assay on UACC-62 is 19.6 µM (inactive); with SF-539, > 100 µM (inactive); with SW-620, > 100 µM (inactive); with RXF 393, > 100 µM (inactive).

Consider `COc1cc(-c2cccs2)sc1-c1cccs1`, for which the GI50 in the assay on HT-29 was 20.7 µM (inactive); in the assay on DMS-273 it was 12.5 µM (inactive); in the assay with COLO 205 it was 13.2 µM (inactive); in the assay with EKVX it was 6.55 µM (inactive); in the assay with ACHN, 53.5 µM (inactive); in the assay with SK-OV-3, 31 µM (inactive). The GI50 was 4.4 µM in the assay with HCT-15; 29.3 µM (inactive) in the assay with CCRF-CEM; 28.6 µM (inactive) in the assay with HCT-116; 41.6 µM (inactive) in the assay on TK-10; 50.2 µM (inactive) in the assay on OVCAR-4; 40.9 µM (inactive) in the assay on UACC-62. Moreover, the GI50 in the assay on SF-539 was 73.8 µM (inactive); in the assay with SW-620, 71.1 µM (inactive); with RXF 393, 21.8 µM (inactive).

Consider `Nc1nc(N)c2ncn(CCCC(c3ccccc3)P(=O)(O)O)c2n1` (stereo not given), for which the GI50 in the assay with HT-29 was > 100 µM (inactive); with DMS-273, > 100 µM (inactive); in the assay on COLO 205, > 100 µM (inactive); in the assay on ACHN it was > 100 µM (inactive); with SK-OV-3, > 100 µM (inactive); in the assay with HCT-15 it was above 100 µM. Moreover, the GI50 with CCRF-CEM, with HCT-116, in the assay with TK-10, with CAKI-1, in the assay with UACC-62 and in the assay with SF-539 was > 100 µM (inactive) in each case. Besides, the GI50 in the assay on SW-620 is > 100 µM (inactive).

In the case of `CCCCCCCCCCCCCCCC(=O)OCC1OC(n2cc(F)c(=O)[nH]c2=O)C(NC(=O)N(CCCl)N=O)C(O)C1O` (stereo not given), the GI50 with HT-29 was 4.68 µM (inactive); in the assay with DMS-273, 0.343 µM (active); with COLO 205 it was 4.41 µM (inactive); with EKVX, 2.58 µM (inactive); with ACHN, 1.64 µM (inactive); with SK-OV-3 it was 5.45 µM (inactive). In addition, the GI50 was 4.95 µM in the assay on HCT-15; 0.611 µM (active) with CCRF-CEM; 1.22 µM (inactive) with HCT-116; 10.1 µM (inactive) in the assay with TK-10; 4.78 µM (inactive) with CAKI-1; 7.96 µM (inactive) with OVCAR-4. Further, the concentration for 50% growth inhibition (GI50) in the assay with UACC-62 is 0.0103 µM (active); with SF-539 it was 0.122 µM (active); with SW-620 it was 1.31 µM (inactive); in the assay with RXF 393 it was 2.38 µM (inactive).

On to `C=C(C)C12CC3CC/C(=N/O)C(C1)C3(N1CCOCC1)C/C2=N/O` (stereo not given), for which the GI50 with HT-29, in the assay with COLO 205, in the assay with EKVX, in the assay with ACHN, in the assay on MDA-N and in the assay with SK-OV-3 was > 100 µM (inactive) in each case. Further, the concentration for 50% growth inhibition (GI50) with HCT-15 was above 100 µM; in the assay with DU-145, > 100 µM (inactive); with CCRF-CEM, > 100 µM (inactive); in the assay on MCF7, > 100 µM (inactive); in the assay with HCT-116 it was > 100 µM (inactive); in the assay on TK-10, > 100 µM (inactive). For the same compound, the GI50 in the assay on CAKI-1, with OVCAR-4, in the assay on UACC-62, with SF-539, in the assay with SW-620 and in the assay with RXF 393 was > 100 µM (inactive) in each case.

Take `O=C1c2ccccc2C(=O)N1C(=S)c1ccccc1`: the GI50 in the assay with HT-29, in the assay on COLO 205, with EKVX, in the assay on ACHN, in the assay on MDA-N and with SK-OV-3 was > 100 µM (inactive) in each case. Moreover, the GI50 is above 100 µM in the assay on HCT-15; > 100 µM (inactive) with DU-145; > 100 µM (inactive) in the assay with CCRF-CEM; > 100 µM (inactive) in the assay with MCF7; > 100 µM (inactive) in the assay on HCT-116; > 100 µM (inactive) with TK-10. The GI50 in the assay on CAKI-1, in the assay on OVCAR-4, in the assay on UACC-62, in the assay on SF-539, in the assay on SW-620 and in the assay on RXF 393 was > 100 µM (inactive) in each case.

In the case of `CCCCOC(=O)NC(Nc1ccc(S(=O)(=O)Nc2ccc(OC)nn2)cc1)(C(F)(F)F)C(F)(F)F`, the GI50 with HT-29, in the assay on COLO 205, in the assay on EKVX, in the assay with ACHN, in the assay on MDA-N and in the assay on SK-OV-3 was > 100 µM (inactive) in each case. Further, the GI50 is above 100 µM in the assay with HCT-15; > 100 µM (inactive) in the assay with DU-145; > 100 µM (inactive) in the assay with CCRF-CEM; > 100 µM (inactive) with MCF7; > 100 µM (inactive) in the assay on HCT-116; > 100 µM (inactive) in the assay on TK-10. The GI50 in the assay with CAKI-1, in the assay on OVCAR-4, with UACC-62, in the assay on SF-539, in the assay with SW-620 and in the assay with RXF 393 was > 100 µM (inactive) each time.

Consider `O=P(Nc1ccccc1)(Oc1ccccc1)N1CCN(c2ccccc2)CC1` (stereo not given), for which the GI50 was 15.8 µM (inactive) in the assay with HT-29; 19.6 µM (inactive) in the assay on COLO 205; 17.4 µM (inactive) with EKVX; 22.4 µM (inactive) in the assay with ACHN; 16.9 µM (inactive) in the assay on MDA-N; 16.8 µM (inactive) with SK-OV-3. The concentration for 50% growth inhibition (GI50) was 13.8 µM in the assay with HCT-15; 19.6 µM (inactive) in the assay on DU-145; 26.3 µM (inactive) in the assay on CCRF-CEM; 17.2 µM (inactive) in the assay on MCF7; 16.8 µM (inactive) in the assay on HCT-116; 21.8 µM (inactive) in the assay with TK-10. In addition, the GI50 is 24.8 µM (inactive) with CAKI-1; 25.5 µM (inactive) in the assay with OVCAR-4; 12.7 µM (inactive) in the assay with UACC-62; 19.5 µM (inactive) in the assay on SF-539; 25.4 µM (inactive) in the assay on SW-620; 18.2 µM (inactive) with RXF 393.

As for `CC(=O)C1C(=O)C(=O)N(c2ccccc2)C1=O` (stereo not given), the GI50 with HT-29, in the assay with COLO 205, with EKVX, in the assay with ACHN, in the assay on MDA-N and with SK-OV-3 was > 100 µM (inactive) each time. Further, the 50% growth inhibitory concentration (GI50) with HCT-15 was above 100 µM; in the assay with DU-145 it was > 100 µM (inactive); with CCRF-CEM, > 100 µM (inactive); in the assay with MCF7, > 100 µM (inactive); with HCT-116, > 100 µM (inactive); in the assay with TK-10, > 100 µM (inactive). Further, the GI50 in the assay on CAKI-1, with OVCAR-4, in the assay on UACC-62, with SF-539, in the assay on SW-620 and in the assay with RXF 393 was > 100 µM (inactive) throughout.

The record behind these values is ChEMBL document CHEMBL1201862, “PubChem BioAssay data set” (2004).
